Assay results reported in patent US20050164945A1, “Endotheliase-1 ligands” (priority 2003, published 2005).

Key:
[1] = tested on: ET-2; settings: for ET-2 estimated IC50: 30 minute preincubation with 100 nM Kunitz domain; for IC50: read-out: ET-2 estimated IC50, 30 minute preincubation with 100 nM Kunitz domain
Procedure: (§1) Cloning into this vector placed a His-tag at the C-terminus of the protein that was used to facilitate purification.
(§2) For protein production, E. coli containing the expression vector were grown in media containing ampicillin and 2% glucose to an OD600 of 0.5. At this time the cells were spun down and the media removed. The cell pellet was then resuspended in fresh media containing ampicillin and 1 mM IPTG to induce expression of the protein. The cells were allowed to grow with shaking overnight at 30° C. before harvesting by centrifugation. Periplasmic extracts were then prepared and the MBP-Kunitz fusion purified using immobilized metal ion chromatography.

[2] = tested on: Trypsin; settings: read-out: Trypsin estimated IC50, 30 minute preincubation with 100 nM Kunitz domain
Procedure: as §1, §2

[3] = target: MTSP-1 (Homo sapiens, UniProt Q9Y5Y6); settings: 30 minute preincubation with 100 nM Kunitz domain
Sequence of MTSP-1 (Q9Y5Y6 whole entry, species assumed, the tested form may be a part): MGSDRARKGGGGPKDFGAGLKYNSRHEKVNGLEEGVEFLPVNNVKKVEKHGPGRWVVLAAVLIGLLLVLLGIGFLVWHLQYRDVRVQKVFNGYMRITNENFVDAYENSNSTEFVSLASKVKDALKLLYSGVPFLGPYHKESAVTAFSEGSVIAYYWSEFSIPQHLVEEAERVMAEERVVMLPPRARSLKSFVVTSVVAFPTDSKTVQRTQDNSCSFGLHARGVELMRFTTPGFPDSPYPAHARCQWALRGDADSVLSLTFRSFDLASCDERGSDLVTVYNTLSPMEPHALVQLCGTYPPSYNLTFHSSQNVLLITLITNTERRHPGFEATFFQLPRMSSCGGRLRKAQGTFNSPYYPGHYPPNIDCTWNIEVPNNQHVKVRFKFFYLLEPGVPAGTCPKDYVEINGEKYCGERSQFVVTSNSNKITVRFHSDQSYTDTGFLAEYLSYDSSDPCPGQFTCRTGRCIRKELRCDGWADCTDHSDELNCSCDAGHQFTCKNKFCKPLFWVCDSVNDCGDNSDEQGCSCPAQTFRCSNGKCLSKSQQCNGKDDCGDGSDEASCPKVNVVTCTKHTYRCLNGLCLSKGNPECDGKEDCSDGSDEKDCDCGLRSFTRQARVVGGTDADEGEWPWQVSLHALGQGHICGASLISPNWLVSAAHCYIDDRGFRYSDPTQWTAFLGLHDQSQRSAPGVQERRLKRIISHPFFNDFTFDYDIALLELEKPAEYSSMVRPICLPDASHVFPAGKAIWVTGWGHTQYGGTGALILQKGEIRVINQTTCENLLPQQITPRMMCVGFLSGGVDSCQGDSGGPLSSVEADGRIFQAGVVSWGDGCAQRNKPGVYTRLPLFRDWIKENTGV
Procedure: as §1, §2

[4] = target: fXa (Homo sapiens, UniProt P00742); settings: 30 minute preincubation with 100 nM Kunitz domain
Sequence of fXa (P00742 235-488 limits assumed): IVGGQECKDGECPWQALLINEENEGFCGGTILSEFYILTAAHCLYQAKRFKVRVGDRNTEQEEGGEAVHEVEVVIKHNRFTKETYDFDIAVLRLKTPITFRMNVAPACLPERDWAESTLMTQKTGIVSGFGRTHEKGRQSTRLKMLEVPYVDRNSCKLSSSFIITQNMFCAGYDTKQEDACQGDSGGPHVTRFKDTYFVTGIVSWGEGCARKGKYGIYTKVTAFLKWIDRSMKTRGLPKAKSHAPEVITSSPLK
Sequence of fXa (P00742 41-179 partner limits assumed): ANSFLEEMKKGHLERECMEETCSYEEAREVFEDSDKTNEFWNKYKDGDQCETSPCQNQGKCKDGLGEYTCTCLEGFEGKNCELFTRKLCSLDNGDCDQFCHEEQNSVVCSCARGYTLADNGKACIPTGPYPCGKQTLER
Procedure: as §1, §2

[5] = target: TnIV (Homo sapiens, UniProt P35030); settings: 30 minute preincubation with 100 nM Kunitz domain
Sequence of TnIV (P35030 whole entry, the tested form may be a part): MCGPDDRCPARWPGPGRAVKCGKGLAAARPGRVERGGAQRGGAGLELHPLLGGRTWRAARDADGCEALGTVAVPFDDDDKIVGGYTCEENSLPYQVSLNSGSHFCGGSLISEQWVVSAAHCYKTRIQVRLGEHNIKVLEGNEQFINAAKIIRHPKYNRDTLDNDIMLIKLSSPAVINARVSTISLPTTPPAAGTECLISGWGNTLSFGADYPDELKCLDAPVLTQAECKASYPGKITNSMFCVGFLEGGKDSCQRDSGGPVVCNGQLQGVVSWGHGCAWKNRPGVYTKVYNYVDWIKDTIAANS
Procedure: as §1, §2

Sequence of ET-2 (Q9BYE2 326-559 limits assumed): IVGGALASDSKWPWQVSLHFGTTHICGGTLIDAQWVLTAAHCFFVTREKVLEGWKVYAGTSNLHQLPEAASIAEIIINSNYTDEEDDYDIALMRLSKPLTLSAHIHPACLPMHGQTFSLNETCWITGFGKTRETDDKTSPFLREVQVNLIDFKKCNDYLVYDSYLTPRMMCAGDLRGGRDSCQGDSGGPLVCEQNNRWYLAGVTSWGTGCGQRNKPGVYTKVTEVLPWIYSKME

Sequence | ET-2 estimated IC50 [1] | IC50 [2] | MTSP-1 estimated IC50 [3] | fXa estimated IC50 [4] | IC50 [1] | TnIV estimated IC50 [5]
MAAEMHSFCAFKADKGECRASVQRFFFNIFTRQCEEFNYGGCGGNQNRFESLEECKKMCTRDSASSASGDFD [MBP-D12] | IA (IA = <5% inhibition @ 100 nM) | ~30 nM | IA (IA = <5% inhibition @ 100 nM) | – | – | –
MAAEMHSFCAFKADKGFCRAMDIRFFFNIFTRQCEEFIYGGCGGNQNRFESLEECKKMCTRDSASSASGDFD [MBP-1B2] | IA (IA = <5% inhibition @ 100 nM) | < 10 nM | IA (IA = <5% inhibition @ 100 nM) | IA (IA = <5% inhibition @ 100 nM) | – | –
MAAEMHSFCAFKADKGTCRGDFPRFFFNIFTRQCEEFHYGGCGGNQNRFESLEECKKMCTRDSASSASGDFD [MBP-1E9] | IA (IA = <5% inhibition @ 100 nM) | ≥ 1000 nM | IA (IA = <5% inhibition @ 100 nM) | IA (IA = <5% inhibition @ 100 nM) | – | –
MAAEMHSFCAFKADPGPCRAIMTRFFFNIFTRQCEEFRYGGCLGNQNRFESLEECKKMCTRDSASSASGDFD [MBP-1G11] | – | < 10 nM | IA (IA = <5% inhibition @ 100 nM) | – | ≥ 1000 nM | –
MAAEMHSFCAFKADPGPCRAMFNRFFFNIFTRQCEEFNYGGCSGNQNRFESLEECKKMCTRDSASSASGDFD [MBP-1E6] | – | < 10 nM | – | IA (IA = <5% inhibition @ 100 nM) | ~400 nM | –
MAAEMHSFCAFKADPGQCRAYYRRFFFNIFTRQCEEFVYGGCMGNQNRFESLEECKKMCTRDSASSASGDFD [MBP-1G2] | – | < 10 nM | IA (IA = <5% inhibition @ 100 nM) | – | ~300 nM | –
MAAEMHSFCAFKADQGPCRAAISRFFFNIFTRQCEEFVYGGCEGNQNRFESLEECKKMCTRDSASSASGDFD [MBP-1D9] | – | ~50 nM | IA (IA = <5% inhibition @ 100 nM) | IA (IA = <5% inhibition @ 100 nM) | ≥ 1000 nM | –
MAAEMHSFCAFKADQGPCRASVHRFFFNIFTRQCEEFFYGGCLGNQNRFESLEECKKMCTRDSASSASGDFD [MBP-1F8] | IA (IA = <5% inhibition @ 100 nM) | < 10 nM | IA (IA = <5% inhibition @ 100 nM) | IA (IA = <5% inhibition @ 100 nM) | – | IA (IA = <5% inhibition @ 100 nM)
MAAEMHSFCAFKADRGPCRADFHRFFFNIFTRQCEEFHYGGCGGNQNRFESLEECKKMCTRDSASSASGDFD [MBP-1A10] | IA (IA = <5% inhibition @ 100 nM) | < 10 nM | – | IA (IA = <5% inhibition @ 100 nM) | – | –
MAAEMHSFCAFKADRGPCRAYFDRFFFNIFTRQGEEFIYGGCMGNQNRFESLEECKKMCTRDSASSASGDFD [MBP-1G8] | IA (IA = <5% inhibition @ 100 nM) | ~10 nM | IA (IA = <5% inhibition @ 100 nM) | – | – | –
MAAEMHSFCAFKADTGPCRADIKRFFFNIFTRQCEEFRYGGCMGNQNRFESLEECKKMCTRDSASSASGDFD [MBP-1G9] | IA (IA = <5% inhibition @ 100 nM) | ~60 nM | – | IA (IA = <5% inhibition @ 100 nM) | – | IA (IA = <5% inhibition @ 100 nM)
MAAEMHSFCAFKADTGTCRAAMVRFFFNIFTRQCEEFTYGGCEGNQNRFESLEECKKMCTRDSASSASGDFD [MBP-1H8] | IA (IA = <5% inhibition @ 100 nM) | ~30 nM | IA (IA = <5% inhibition @ 100 nM) | IA (IA = <5% inhibition @ 100 nM) | – | IA (IA = <5% inhibition @ 100 nM)
